Experimental data from patent US20230001005A1, “TREATMENT OF CANCERS WITH ANTIBODY DRUG CONJUGATES (ADC) THAT BIND TO 191P4D12 PROTEINS” (AGENSYS, INC., priority 2019, published 2023).
Starred links: 1 amine or outer side, 2 acyl side, 3 side chain; linkers in the order of their positions; H or OH if unused. Non-standard residues stand in square brackets, D forms with d. Residues, ends and D or L forms follow the SMILES beside them. *: point of attachment. Dolaproine = CO[C@@H]([C@@H]1CCCN1)[C@@H](C)C(=O)O; Hexanoyl(6-maleimido) = O=C1C=CC(=O)N1CCCCCC(=O)*; Dil = CC[C@H](C)[C@H](NC)[C@@H](CC(=O)O)OC; PABC = O=C(OCc1ccc(N[*:1])cc1)[*:2]; X1 = C[C@@H](N*)[C@@H](O)c1ccccc1; Cit = NC(=O)NCCC[C@H](N)C(=O)O; NMeV = CN[C@H](C(=O)O)C(C)C

Columns and labels:
[1] = system: acute myeloid leukemia (AML) at relapse; conditions: administered alone; cited from earlier work
[2] = Absorbance / phototoxicity assessment (ICH S10)
[3] = system: cell line engineered to express human 191P4D12; test: In vitro cell survival, engineered cell line; type: cell-based
[4] = Comparability study: in vivo antitumor activity
[5] = system: patients who progressed after platinum chemotherapy and a PD-1/L1 inhibitor; test: EV-201 pivotal phase 2 study; type: in vivo, human
Description: In a pivotal phase 2 study (EV-201), patients must have had prior treatment with platinum-containing chemotherapy or be platinum-naïve and ineligible for cisplatin treatment. […] The confirmed ORR was 44% in patients treated with enfortumab vedotin 1.25 mg/kg. The median OS was 11.7 months and the median duration of response was 7.6 months.

[6] = system: cynomolgus monkeys
[7] = molecular target: T1, 191P4D12 (Homo sapiens, UniProt Q96NY8); test: Comparability study: binding affinity to 191P4D12
T1 sequence (Q96NY8 32-510): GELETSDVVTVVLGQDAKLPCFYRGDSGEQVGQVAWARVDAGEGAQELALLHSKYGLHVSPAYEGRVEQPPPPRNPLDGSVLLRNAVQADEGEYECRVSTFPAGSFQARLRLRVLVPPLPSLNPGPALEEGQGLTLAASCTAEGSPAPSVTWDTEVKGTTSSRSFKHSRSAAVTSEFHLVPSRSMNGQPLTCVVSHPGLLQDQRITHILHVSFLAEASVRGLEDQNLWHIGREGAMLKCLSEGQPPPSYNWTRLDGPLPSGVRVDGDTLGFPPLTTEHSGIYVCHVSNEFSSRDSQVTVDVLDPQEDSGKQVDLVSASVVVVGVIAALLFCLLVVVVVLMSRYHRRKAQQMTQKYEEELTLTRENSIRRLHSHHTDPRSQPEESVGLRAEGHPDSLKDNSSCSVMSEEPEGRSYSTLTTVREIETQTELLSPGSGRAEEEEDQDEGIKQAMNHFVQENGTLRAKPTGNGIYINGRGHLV

[8] = system: cynomolgus monkeys; test: Immunogenicity in cynomolgus monkeys; type: in vivo
[9] = system: metastatic urothelial cancer; test: EV-101 phase 1 dose escalation/expansion study; type: in vivo, human
Text: EV-101 is a phase 1 dose escalation/expansion study that enrolled patients with 191P4D12-expressing solid tumors, (eg, metastatic urothelial cancer [UC]), who progressed on ≥1 prior chemotherapy regimen, including a cohort of patients with metastatic UC who received prior anti-PD-(L)1 therapy.
Enfortumab vedotin provided durable responses and meaningful survival results in patients after anti-PD-(L)-1 therapy in a population with a high unmet medical need. The confirmed ORR was 45% by a central review in patients who were treated with enfortumab vedotin 1.25 mg/kg. The median overall survival (OS) of 12.3 months is encouraging given the historical median OS is ≤10.3 months (Bellmunt J et al, N Eng J Med. 2017; 376(11):1015-1026).

[10] = system: monkeys; test: Toxicity studies in monkeys; conditions: sexually immature male monkeys, doses up to 6 mg/kg
[11] = Comparability study: in vitro cytotoxicity; type: cell-based
[12] = system: patient-derived TNBC cell xenograft; test: Patient-derived TNBC cell xenograft model; type: in vivo
[13] = system: rats; test: Toxicity studies in rats; type: in vivo
[14] = system: L5178Y TK+/−mouse lymphoma; test: L5178Y TK+/− mouse lymphoma mutation assay; type: cell-based
[15] = system: bacteria; test: Reverse mutation test in bacteria (Ames test)
[16] = system: squamous NSCLC, Gastric (GEJ) cancer, HNSCC, NSCLC-adenocarcinoma, head & neck cancer-squamous, and breast cancer; conditions: MMAE, Vinca, or both MMAE and Vinca; Vinca used if data for MMAE was not available; cited from earlier work
[17] = system: rats; test: Micronucleus test in rats; type: in vivo
[18] = system: xenografts of human lung adenocarcinoma cell line; test: Tumor xenograft model, human lung adenocarcinoma cell line; type: in vivo
[19] = system: breast cancer xenografts; test: Formation of breast cancer xenografts (subcutaneous mouse xenograft model); parameters: species or system SCID mice; conditions: in vivo
Description: (§1) Subcutaneous (s.c.) tumors are generated by injection of 5×10^4- 10^6 cancer cells mixed at a 1:1 dilution with Matrigel (Collaborative Research) in the right flank of male SCID mice. To test ADC efficacy on tumor formation, ADC injections are started on the same day as tumor-cell injections. As a control, mice are injected with either purified human IgG or PBS; or a purified MAb that recognizes an irrelevant antigen not expressed in human cells. In preliminary studies, no difference is found between control IgG or PBS on tumor growth. Tumor sizes are determined by caliper measurements, and the tumor volume is calculated as width^2×Length/2, wherein width is the smallest dimension and length is the largest dimension. Mice with subcutaneous tumors greater than 1.5 cm in diameter are sacrificed.

[20] = system: human lung cancer xenograft AG-L4; test: Efficacy in subcutaneous established human lung cancer xenograft AG-L4 in SCID mice; type: in vivo; conditions: 10 mg/kg every seven days for two doses, intravenous bolus; compared to control ADC
Description: In another experiment, patient-derived lung cancer xenograft AG-L4 was maintained by serial passages in SCID mice. Stock tumors were harvested sterilely and minced into 1 mm^3 pieces. Six (6) pieces were implanted into the flank of individual SCID mice. Tumors were allowed to grow untreated until they reached an approximate volume of 200 mm^3. The Ha22-2(2,4)6.1vcMMAE and the control ADC were dosed at 10 mg/kg every seven (7) days for two doses by intravenous bolus injection. The amount of ADC administered was based on the individual body weight of each animal obtained immediately prior to dosing. Tumor growth was monitored using caliper measurements every 3 to 4 days. Tumor volume was calculated as Width^2×Length/2, where width is the smallest dimension and length is the largest dimension.

[21] = system: lung cancer xenografts; test: Formation of lung cancer xenografts (subcutaneous mouse xenograft model); parameters: species or system SCID mice; conditions: in vivo
Description: as §1

[22] = system: xenograft of a patient-derived bladder cancer; test: Tumor xenograft model, patient-derived bladder cancer; type: in vivo; conditions: in a dose-dependent manner
[23] = system: xenograft of human HR+breast cancer cell line; test: Tumor xenograft model, human HR+ breast cancer cell line; type: in vivo; conditions: 5 mg/kg every 4 days for 4 doses
[24] = system: male and female rats; test: Immunogenicity in rats; type: in vivo
[25] = system: patient-derived lung adenocarcinoma; test: Tumor xenograft model, patient-derived lung adenocarcinoma; type: in vivo
[26] = system: human breast cancer xenograft BT-483; test: Efficacy in subcutaneous established human breast cancer xenograft BT-483 in SCID mice; type: in vivo; conditions: 5 mg/kg every four days for four doses, intravenous bolus; compared to control ADC
Description: In this experiment, human breast cancer BT-483 cells were used to generate stock xenografts, which were maintained by serial passages in SCID mice. Stock tumors were harvested sterilely and minced into 1 mm^3 pieces. Six (6) pieces were implanted into the flank of individual SCID mice. Tumors were allowed to grow untreated until they reached an approximate volume of 100 mm^3. The Ha22-2(2,4)6.1vcMMAE and the control ADC were dosed at 5 mg/kg every four (4) days for four (4) doses by intravenous bolus injection. The amount of ADC administered was based on the individual body weight of each animal obtained immediately prior to dosing. Tumor growth was monitored using caliper measurements every 3 to 4 days. Tumor volume was calculated as Width^2×Length/2, where width is the smallest dimension and length is the largest dimension.

**Q.** Which response [1] does the source give for “CT-011: anti-PD-1 antibody, a humanized antibody” here?
**A.** failed to show response

**Q.** Which “absorbance against the criteria for phototoxicity testing as defined in the ICH S10 guidance” value [2] does the source give for `CC[C@H](C)[C@@H]([C@@H](CC(=O)N1CCC[C@H]1[C@H](OC)[C@@H](C)C(=O)N[C@H](C)[C@@H](O)c1ccccc1)OC)N(C)C(=O)[C@@H](NC(=O)[C@H](C(C)C)N(C)C(=O)OCc1ccc(NC(=O)[C@H](CCCNC(N)=O)NC(=O)[C@@H](NC(=O)CCCCCN2C(=O)C=CC2=O)C(C)C)cc1)C(C)C` [vc-MMAE, valine-citrulline linker-MMAE] ({Hexanoyl(6-maleimido)}-V[Cit][PABC][NMeV]V[Dil][Dolaproine]-X1) here?
**A.** did not meet the criteria for phototoxicity testing

**Q.** With AGS-22M6 as the compound, how does the “cell survival / cell growth” value [3] read?
**A.** did not affect cell growth

**Q.** Which “photoreactivity / direct phototoxicity” value ([2]; concluded from absorbance of MMAE and vc-MMAE) does the source give for enfortumab vedotin here?
**A.** not considered to be sufficiently photoreactive

**Q.** What about the “comparability of in vivo antitumor activity, enfortumab vedotin versus AGS-22M6E” value [4] of the same compound?
**A.** confirmed

**Q.** And the “median OS” value [5]?
**A.** 11.7 months

**Q.** What about the “median duration of response” value [5] of the same compound?
**A.** 7.6 months

**Q.** What about the “confirmed ORR” value ([5]; 1.25 mg/kg) of the same compound?
**A.** 44%

**Q.** And the “safety profile, AGS-22M6E versus enfortumab vedotin” value [6]?
**A.** comparable

**Q.** And the “comparability of binding affinity to 191P4D12, enfortumab vedotin versus AGS-22M6E” value [7]?
**A.** confirmed

**Q.** And the “immunogenicity, AGS-22M6E versus enfortumab vedotin” value [8]?
**A.** comparable

**Q.** What about the “median overall survival (OS)” value [9] of the same compound?
**A.** 12.3 months

**Q.** What about the “confirmed ORR” value ([9]; by a central review, 1.25 mg/kg, metastatic urothelial cancer after anti-PD-(L)-1 therapy) of the same compound?
**A.** 45%

**Q.** And the testicular toxicity [10]?
**A.** not observed

**Q.** And the “comparability of in vitro cytotoxicity, enfortumab vedotin versus AGS-22M6E” value [11]?
**A.** confirmed

**Q.** And the “pharmacological antitumor activity, enfortumab vedotin versus AGS-22M6E” value [12]?
**A.** comparable

**Q.** And the “dose at which testicular toxicity (seminiferous tubule degeneration and hypospermia in the epididymis) was noted” value [13]?
**A.** ≥ 2.0 mg/kg

**Q.** And the “reversibility of testicular findings” value ([13]; end of a 24-week recovery period)?
**A.** partially reversed

**Q.** With `CC[C@H](C)[C@@H]([C@@H](CC(=O)N1CCC[C@H]1[C@H](OC)[C@@H](C)C(=O)N[C@H](C)[C@@H](O)c1ccccc1)OC)N(C)C(=O)[C@@H](NC(=O)[C@@H](NC)C(C)C)C(C)C` [MMAE, monomethyl auristatin E] (H-[NMeV]V[Dil][Dolaproine]-X1) as the compound, how does the “absorbance in the range of 290 nm to 700 nm” value [2] read?
**A.** no absorbance

**Q.** And the genotoxic potential [14]?
**A.** no discernible genotoxic potential

**Q.** What about the genotoxic potential [15] of the same compound?
**A.** no discernible genotoxic potential

**Q.** What about the “sensitivity of the cancers to cytotoxicity” value [16] of the same compound?
**A.** sensitive to cytotoxicity

**Q.** And the chromosomal aberrations [17]?
**A.** induce chromosomal aberrations

**Q.** Which results are given for “AGS-22M6E: ADC derived from a murine hybridoma cell line; antibody Ha22-2(2,4)6.1 conjugated to MMAE via vc linker”?
**A.** tumor growth [18]: significantly inhibited tumor growth; formation of breast cancer xenografts [19]: inhibits formation; pharmacokinetics, AGS-22M6E versus enfortumab vedotin [6]: comparable; safety profile, AGS-22M6E versus enfortumab vedotin [6]: comparable; growth of AG-L4 lung cancer xenografts (tumor volume) [20]: significantly inhibited the growth; formation of lung cancer xenografts [21]: inhibits formation; immunogenicity [8]: moderately immunogenic; immunogenicity, AGS-22M6E versus enfortumab vedotin [8]: comparable; tumor growth [22]: significantly inhibited the tumor growth; tumor growth [23]: significantly inhibited the tumor growth; immunogenicity [24]: moderately immunogenic; tumor growth [25]: significantly inhibited tumor growth; cell survival / cell growth [3]: inhibited cell survival; pharmacological antitumor activity, enfortumab vedotin versus AGS-22M6E [12]: comparable; growth of BT-483 breast tumor xenografts (tumor volume) [26]: significantly inhibited the growth
